Key:
Bradykinin B1 = biological target: T1, Bradykinin B1 (Homo sapiens, UniProt P46663); assay: Lead Profiling Screen – Eurofins Panlabs; assay type: binding; settings: read-out: % inh at 10 μM
T1 construct: Eurofins Panlabs (contract screen)

CYP 2C9 = biological target: T2, CYP 2C9 (Homo sapiens, UniProt P11712); assay: P450 inhibition in pooled human liver microsomes; assay type: in vitro ADME; settings: pooled HLM, NADPH, CYP-specific probe substrates
T2 construct: from tissue; host or cells: pooled human liver microsomes (according to the earlier reading)

GABAA, Muscimol, Central = assay: Lead Profiling Screen – Eurofins Panlabs; assay type: binding, rat
Adrenergic α1A = biological target: T3, Adrenergic α1A (Rattus norvegicus, UniProt P43140); assay: Lead Profiling Screen – Eurofins Panlabs; assay type: binding; settings: read-out: % inh at 10 μM
T3 construct: Eurofins Panlabs

[1] = Binding in brain homogenate from rat (equilibrium dialysis); assay type: in vitro ADME
Method: Binding in brain homogenate from rat.
Determination of fraction unbound (f u) in brain homogenate from rat was conducted using the same methodology and procedure than described for plasma protein binding assay with the following modifications: 1) a final compound concentration of 1 μM was used, 2) naïve rat brains were homogenized in DPBS (1:3 composition of brain: DPBS, w/w) using a Mini-Bead Beater™ machine in order to obtain […]
The diluted fraction unbound (f u2) in brain was calculated as (analyte to IS MS peak area ratio from Trans-buffer side) / (analyte to IS MS peak area ratio from Cis-brain homogenate side). Undiluted fraction unbound for the brain was calculated using the following equation: […]
Mean values for each species were calculated from 3 replicates. […]

Opiate κ (OP2, KOP) = Opiate κ (OP2, KOP) (Homo sapiens, UniProt P41145); assay: Lead Profiling Screen – Eurofins Panlabs; assay type: binding; settings: read-out: % inh at 10 μM
Histamine H1 = Histamine H1 (Homo sapiens, UniProt P35367); assay: Lead Profiling Screen – Eurofins Panlabs; assay type: binding; settings: read-out: % inh at 10 μM
cardiac ion channels = assay: Charles River ChanTest Cardiac Channel Panel (patch clamp), whole panel; assay type: cell-based, human; settings: 10 μM
Method: page 17: Table S3. Cardiac Ion Channel Panel - Charles River Laboratories for VU6016235 Ion Channel Concentration Mean % Standard Standard n (μM) Inhibition Deviation Error hCav1.2 10 13.9 8.9 5.1 3 hCav3.2 10 6.7 2.7 1.4 4 hHCN2 10 2.6 1.9 1.1 3 hERG 10 10.9 0.9 0.4 4 hKv1.5 10 1.3 1.8 0.9 4 […] 10 4.1 5.6 2.8 4 hKv1.3 10 9 2.9 1.7 3 hNav1.5 (Tonic) 10 5.8 0.6 0.4 3 […] (Phasic) The in vitro effects of VU6016235 were evaluated at room temperature using the QPatch HT® (Sophion Bioscience A/S, Denmark), an automatic parallel patch clamp system. VU6016235 was evaluated at a concentration of 10 μM and tested in at least 3 cells (n ≥ 3). […] Next, rats were injected subcutaneously with vehicle or a dose of 0.75 mg/kg amphetamine and then monitored for an additional 60 min. Changes in locomotor activity were recorded for a total of 120 min. Locomotor data were expressed as the number of photobeam breaks/5 min intervals across the 120-min test session or as the total ambulation, calculated as sum of photobeam beam breaks from the time of amphetamine administration (60 min) until the end of the study (120 min). Time course data were analyzed by two-way ANOVA with main effects of treatment and time; changes in total ambulation were analyzed by one-way ANOVA followed by Dunnett's post hoc test (GraphPad Prism 7 [GraphPad Software, San Diego, CA]). […]

human M3 = human M3 (Homo sapiens, UniProt P20309); assay: Calcium mobilization assay, muscarinic selectivity; assay type: cell-based
Chain of human M3 (P20309 whole entry): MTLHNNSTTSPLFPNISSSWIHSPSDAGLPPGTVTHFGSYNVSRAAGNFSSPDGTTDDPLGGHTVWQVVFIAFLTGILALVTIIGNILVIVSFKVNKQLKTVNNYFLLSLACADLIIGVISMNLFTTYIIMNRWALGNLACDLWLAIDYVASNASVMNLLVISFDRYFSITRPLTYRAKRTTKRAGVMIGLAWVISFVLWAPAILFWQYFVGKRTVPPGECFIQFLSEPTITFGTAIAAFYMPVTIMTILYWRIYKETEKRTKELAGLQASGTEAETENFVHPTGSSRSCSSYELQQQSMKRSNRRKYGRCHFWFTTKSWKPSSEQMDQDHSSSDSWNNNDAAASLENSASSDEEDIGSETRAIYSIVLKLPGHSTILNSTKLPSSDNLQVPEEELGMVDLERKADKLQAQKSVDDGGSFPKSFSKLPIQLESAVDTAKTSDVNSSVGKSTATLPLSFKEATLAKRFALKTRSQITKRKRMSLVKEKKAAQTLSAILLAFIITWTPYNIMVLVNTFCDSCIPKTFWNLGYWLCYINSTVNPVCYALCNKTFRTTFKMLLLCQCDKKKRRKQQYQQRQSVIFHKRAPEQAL

CYP 2D6 = biological target: T4, CYP 2D6 (Homo sapiens, UniProt P10635); assay: P450 inhibition in pooled human liver microsomes; assay type: in vitro ADME; settings: pooled HLM, NADPH, CYP-specific probe substrates
T4 construct: from tissue; host or cells: pooled human liver microsomes (according to the earlier reading)
T4 sequence (P10635 whole entry): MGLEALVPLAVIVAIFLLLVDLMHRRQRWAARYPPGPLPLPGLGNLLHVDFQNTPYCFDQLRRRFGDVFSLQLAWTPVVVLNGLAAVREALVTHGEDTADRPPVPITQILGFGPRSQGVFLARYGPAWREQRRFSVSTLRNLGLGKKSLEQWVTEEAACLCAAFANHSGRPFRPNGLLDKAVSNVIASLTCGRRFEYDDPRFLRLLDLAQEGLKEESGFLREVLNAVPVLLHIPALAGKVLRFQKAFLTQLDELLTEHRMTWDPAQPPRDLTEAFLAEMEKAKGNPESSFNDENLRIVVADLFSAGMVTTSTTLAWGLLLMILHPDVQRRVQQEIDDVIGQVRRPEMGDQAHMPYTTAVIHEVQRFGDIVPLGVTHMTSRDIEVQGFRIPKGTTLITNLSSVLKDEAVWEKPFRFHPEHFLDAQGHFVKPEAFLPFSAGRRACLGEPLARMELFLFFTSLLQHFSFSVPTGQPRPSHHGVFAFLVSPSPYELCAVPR

4 strains ± S9 = assay: Mini Ames test; assay type: cell-based
Calcium Channel N-Type = biological target: T5, Calcium Channel N-Type (Rattus norvegicus, UniProt Q02294); assay: Lead Profiling Screen – Eurofins Panlabs; assay type: binding; settings: read-out: % inh at 10 μM
T5 construct: Eurofins Panlabs (contract screen)

Potassium Channel [KATP] = Potassium Channel [KATP] (Cricetus cricetus, UniProt Q09427); assay: Lead Profiling Screen – Eurofins Panlabs; assay type: binding, hamster; settings: read-out: % inh at 10 μM
[2] = biological target: Serotonin (5-Hydroxytryptamine) 5-HT2B (Homo sapiens, UniProt P41595); assay: Lead Profiling Screen – Eurofins Panlabs; assay type: binding; settings: read-out: % inh at 10 μM
Chain of Serotonin (5-Hydroxytryptamine) 5-HT2B (P41595 whole entry): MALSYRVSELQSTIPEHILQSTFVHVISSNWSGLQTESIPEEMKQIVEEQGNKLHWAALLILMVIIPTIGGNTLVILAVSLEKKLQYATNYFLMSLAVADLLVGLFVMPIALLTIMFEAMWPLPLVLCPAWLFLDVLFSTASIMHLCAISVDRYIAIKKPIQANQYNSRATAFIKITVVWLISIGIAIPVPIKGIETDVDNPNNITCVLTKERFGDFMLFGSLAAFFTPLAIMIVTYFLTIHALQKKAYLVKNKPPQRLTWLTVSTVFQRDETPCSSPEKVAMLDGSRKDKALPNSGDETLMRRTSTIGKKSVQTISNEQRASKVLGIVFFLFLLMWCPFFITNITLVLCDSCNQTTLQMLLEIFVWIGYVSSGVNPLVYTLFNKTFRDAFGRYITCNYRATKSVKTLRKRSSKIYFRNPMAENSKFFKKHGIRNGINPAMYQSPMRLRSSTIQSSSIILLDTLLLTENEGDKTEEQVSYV

Adrenergic β1 = biological target: T6, Adrenergic β1 (Homo sapiens, UniProt P08588); assay: Lead Profiling Screen – Eurofins Panlabs; assay type: binding; settings: read-out: % inh at 10 μM
T6 construct: Eurofins Panlabs (contract screen)
T6 sequence (P08588 whole entry): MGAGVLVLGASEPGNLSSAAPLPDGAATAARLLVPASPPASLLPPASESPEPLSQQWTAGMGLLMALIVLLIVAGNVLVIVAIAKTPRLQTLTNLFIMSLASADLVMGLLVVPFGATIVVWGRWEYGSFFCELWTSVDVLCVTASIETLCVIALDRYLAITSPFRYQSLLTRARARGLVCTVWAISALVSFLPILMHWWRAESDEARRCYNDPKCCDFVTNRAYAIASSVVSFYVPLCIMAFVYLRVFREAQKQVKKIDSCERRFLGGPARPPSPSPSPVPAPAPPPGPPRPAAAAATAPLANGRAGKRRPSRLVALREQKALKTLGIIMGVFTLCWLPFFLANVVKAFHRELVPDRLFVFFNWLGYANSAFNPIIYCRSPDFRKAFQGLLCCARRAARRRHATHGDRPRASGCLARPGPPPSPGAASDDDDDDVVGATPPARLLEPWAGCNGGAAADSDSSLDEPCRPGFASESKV

Muscarinic M2 = Muscarinic M2 (Homo sapiens, UniProt P08172); assay: Lead Profiling Screen – Eurofins Panlabs; assay type: binding; settings: read-out: % inh at 10 μM
Adenosine A3 = biological target: T7, Adenosine A3 (Homo sapiens, UniProt P0DMS8); assay: Lead Profiling Screen – Eurofins Panlabs; assay type: binding; settings: read-out: % inh at 10 μM
T7 construct: Eurofins Panlabs
T7 sequence (P0DMS8 whole entry): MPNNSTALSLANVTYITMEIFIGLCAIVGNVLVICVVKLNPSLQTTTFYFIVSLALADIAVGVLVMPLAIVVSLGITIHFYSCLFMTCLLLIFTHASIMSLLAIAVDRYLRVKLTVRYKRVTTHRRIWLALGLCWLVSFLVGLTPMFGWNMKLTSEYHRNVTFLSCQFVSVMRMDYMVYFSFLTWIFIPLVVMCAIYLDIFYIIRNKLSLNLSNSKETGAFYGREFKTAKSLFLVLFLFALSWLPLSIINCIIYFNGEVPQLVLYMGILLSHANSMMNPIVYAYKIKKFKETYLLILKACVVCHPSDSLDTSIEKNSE

Dopamine D4.2 = assay: Lead Profiling Screen – Eurofins Panlabs; assay type: binding, human
human M5 = human M5 (Homo sapiens, UniProt P08912); assay: Calcium mobilization assay, muscarinic selectivity; assay type: cell-based
Chain of human M5 (P08912 whole entry): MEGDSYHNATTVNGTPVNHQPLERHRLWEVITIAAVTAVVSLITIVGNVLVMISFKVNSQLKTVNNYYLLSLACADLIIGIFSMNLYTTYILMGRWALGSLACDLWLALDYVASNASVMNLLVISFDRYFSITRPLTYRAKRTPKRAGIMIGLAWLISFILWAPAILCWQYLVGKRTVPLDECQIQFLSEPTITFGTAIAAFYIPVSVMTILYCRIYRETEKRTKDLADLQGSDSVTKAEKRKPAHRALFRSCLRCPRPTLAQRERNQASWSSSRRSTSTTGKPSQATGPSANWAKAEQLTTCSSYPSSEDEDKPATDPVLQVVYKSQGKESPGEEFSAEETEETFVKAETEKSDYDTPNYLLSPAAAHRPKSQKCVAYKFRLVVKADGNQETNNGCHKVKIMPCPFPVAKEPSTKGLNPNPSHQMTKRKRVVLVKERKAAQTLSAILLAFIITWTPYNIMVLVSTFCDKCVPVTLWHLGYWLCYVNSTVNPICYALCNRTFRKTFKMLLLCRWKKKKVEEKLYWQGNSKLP

[3] = biological target: Transporter, Norepinephrine (NET) (Homo sapiens, UniProt P23975); assay: Lead Profiling Screen – Eurofins Panlabs; assay type: binding; settings: read-out: % inh at 10 μM
Chain of Transporter, Norepinephrine (NET) (P23975 whole entry): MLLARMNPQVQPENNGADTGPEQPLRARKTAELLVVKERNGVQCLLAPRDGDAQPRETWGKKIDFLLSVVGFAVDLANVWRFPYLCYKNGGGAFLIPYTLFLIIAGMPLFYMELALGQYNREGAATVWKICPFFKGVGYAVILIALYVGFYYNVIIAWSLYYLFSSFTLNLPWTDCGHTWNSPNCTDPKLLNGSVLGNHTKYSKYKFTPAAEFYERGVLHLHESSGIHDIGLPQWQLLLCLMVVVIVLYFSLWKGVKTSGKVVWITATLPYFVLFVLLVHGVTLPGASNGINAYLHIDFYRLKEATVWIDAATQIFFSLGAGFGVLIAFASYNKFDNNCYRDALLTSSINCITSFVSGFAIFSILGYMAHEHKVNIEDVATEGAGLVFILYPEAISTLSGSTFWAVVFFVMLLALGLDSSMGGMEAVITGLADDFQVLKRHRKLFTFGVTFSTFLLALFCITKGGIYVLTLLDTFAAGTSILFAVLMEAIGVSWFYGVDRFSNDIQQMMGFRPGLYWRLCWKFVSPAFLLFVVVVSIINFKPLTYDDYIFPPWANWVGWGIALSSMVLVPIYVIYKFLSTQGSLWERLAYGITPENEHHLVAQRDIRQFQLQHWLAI

Dopamine D3 = biological target: T8, Dopamine D3 (Homo sapiens, UniProt P35462); assay: Lead Profiling Screen – Eurofins Panlabs; assay type: binding; settings: read-out: % inh at 10 μM
T8 construct: Eurofins Panlabs (contract screen)

Tachykinin NK1 = Tachykinin NK1 (Homo sapiens, UniProt P25103); assay: Lead Profiling Screen – Eurofins Panlabs; assay type: binding; settings: read-out: % inh at 10 μM
Dopamine D2S = biological target: T9, Dopamine D2S (Homo sapiens, UniProt P14416); assay: Lead Profiling Screen – Eurofins Panlabs; assay type: binding; settings: read-out: % inh at 10 μM
T9 construct: Eurofins Panlabs (contract screen)
T9 sequence (P14416 1-414 isoform P14416-2): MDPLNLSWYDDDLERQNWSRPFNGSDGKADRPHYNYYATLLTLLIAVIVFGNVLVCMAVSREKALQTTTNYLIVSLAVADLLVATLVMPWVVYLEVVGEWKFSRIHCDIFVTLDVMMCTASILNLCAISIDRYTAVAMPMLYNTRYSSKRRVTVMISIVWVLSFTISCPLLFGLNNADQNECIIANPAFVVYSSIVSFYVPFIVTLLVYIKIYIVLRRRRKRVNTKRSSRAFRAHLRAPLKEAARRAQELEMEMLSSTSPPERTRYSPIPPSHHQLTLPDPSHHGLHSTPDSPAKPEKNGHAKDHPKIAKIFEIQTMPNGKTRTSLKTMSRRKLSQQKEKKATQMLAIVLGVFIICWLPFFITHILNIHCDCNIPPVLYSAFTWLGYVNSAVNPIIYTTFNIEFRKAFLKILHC

Neuropeptide Y Y2 = Neuropeptide Y Y2 (Homo sapiens, UniProt P49146); assay: Lead Profiling Screen – Eurofins Panlabs; assay type: binding; settings: read-out: % inh at 10 μM
Chain of Neuropeptide Y Y2 (P49146 whole entry): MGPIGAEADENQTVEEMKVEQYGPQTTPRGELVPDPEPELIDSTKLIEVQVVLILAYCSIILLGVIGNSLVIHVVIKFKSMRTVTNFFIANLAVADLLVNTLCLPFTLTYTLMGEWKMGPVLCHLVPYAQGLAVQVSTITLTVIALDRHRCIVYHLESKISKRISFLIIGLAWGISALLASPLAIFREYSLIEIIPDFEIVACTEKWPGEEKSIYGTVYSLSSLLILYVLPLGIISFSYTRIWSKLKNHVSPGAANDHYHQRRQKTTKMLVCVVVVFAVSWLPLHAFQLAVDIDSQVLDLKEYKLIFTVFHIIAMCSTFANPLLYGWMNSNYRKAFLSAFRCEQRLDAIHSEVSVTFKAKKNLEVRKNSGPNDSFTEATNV

Purinergic P2X = assay: Lead Profiling Screen – Eurofins Panlabs; assay type: binding, rabbit

T1 sequence (P46663 whole entry): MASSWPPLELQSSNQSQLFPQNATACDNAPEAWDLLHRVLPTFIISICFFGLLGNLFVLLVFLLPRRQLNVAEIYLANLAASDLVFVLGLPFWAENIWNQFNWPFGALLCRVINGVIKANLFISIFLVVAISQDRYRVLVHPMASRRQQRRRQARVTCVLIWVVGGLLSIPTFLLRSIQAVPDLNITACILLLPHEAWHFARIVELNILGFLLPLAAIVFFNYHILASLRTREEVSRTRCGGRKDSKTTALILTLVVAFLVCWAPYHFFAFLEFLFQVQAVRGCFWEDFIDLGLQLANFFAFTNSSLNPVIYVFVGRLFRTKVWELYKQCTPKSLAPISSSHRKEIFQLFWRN

Cc1nc(C)c2c(n1)sc1c(NCc3ccc(C(C)(C)O)cc3)nccc12 [22g]
inhibition at 10 µM (Bradykinin B1): -1% | IC50 (CYP 2C9): 17 µM | % inh at 10 μM (GABAA, Muscimol, Central): 1% | inhibition at 10 µM (Adrenergic α1A): 3% | rat fbrain ([1]; fraction unbound, equilibrium dialysis, rat brain homogenates): 0.016 | fraction unbound at 6 h, 1 µM ([1]; rat, brain homogenate, in %, read-out: fu,brain (rat brain homogenate)): 0.01 to 0.05 | inhibition at 10 µM (Opiate κ (OP2, KOP)): 4% | inhibition at 10 µM (Histamine H1): -11% | inhibition, all ion channels (cardiac ion channels): ≤ 14% | human M3 %Ach Max (human M3): inactive | human M3 EC50 (human M3): inactive | IC50 (CYP 2D6): > 30 µM | Mini Ames test result (4 strains ± S9): negative | inhibition at 10 µM (Calcium Channel N-Type): 2% | inhibition at 10 µM (Potassium Channel [KATP]): 4% | inhibition at 10 µM [2]: 16% | inhibition at 10 µM (Adrenergic β1): 3% | inhibition at 10 µM (Muscarinic M2): 10% | inhibition at 10 µM (Adenosine A3): 22% | % inh at 10 μM (Dopamine D4.2): 4% | human M5 %Ach Max (human M5): inactive | human M5 EC50 (human M5): inactive | inhibition at 10 µM [3]: 26% | inhibition at 10 µM (Dopamine D3): 3% | inhibition at 10 µM (Tachykinin NK1): 8% | inhibition at 10 µM (Dopamine D2S): -4% | inhibition at 10 µM (Neuropeptide Y Y2): 12% | % inh at 10 μM (Purinergic P2X): 0%

Source: PMC11487561 (ACS Chemical Neuroscience, 2024)
